“Also recorded” adds a separate entry of the source.
Assays:
[1] = test system: stress induced gastric ulceration; assay: Cold-restraint stress induced gastric ulceration (antiulcer activity); assay type: in vivo, female rats; conditions: for % incidence of lesions / Number of lesions: 3 h before stress; for Number of lesions: total in group
Method: In order to test the antiulcer activity of 5-m-tolyloxyuracil, stress induced gastric ulceration was produced by immobilizing non-fasted, female rats in a supine position and placing them in a refrigerator at 12° C. for 3 hours. Experimental drugs were administered 3 hours before the initiation of the cold-restraint stress period. At the conclusion of the stress period, the rats were sacrificed, their stomachs inflated with 5 ml of water and removed. The isolated stomachs were placed in a 4 percent aqueous solution of formaldehyde to stiffen the serosal side of the inflated stomach. This procedure facilitates examination of the stomach which is accomplished by slitting the stomach along its greater curvature and noting the number and incidence of gastric lesions. Both control and experimental drug groups consisted of ten rats. A significant reduction in the number and incidence of gastric lesions characterizes antiulcer agents.
The table below compares 5-m-tolyoxyuracil (Compound A) with 5-m-tolyloxy-2-thiouracil (Compound B), Carbenoxolone-Na (Compound C), and 5-(m-methylphenoxy)-2(1H)-pyrimidinone (Compound D).
Percent incidence of lesions is defined as follows. [formula] Number of lesions is the total number of lesions in the experimental group.

[2] = test system: experimentally-induced gastric ulceration; conditions: animals; cited from earlier work
gastric ulcer = conditions: human gastric ulcer patients; cited from earlier work
FUDR phosphorylase = conditions: J. Med. Chem., 13, 461 (1970); cited from earlier work
thymidine phosphorylase = conditions: J. Med. Chem., 14, 812 (1971); cited from earlier work
[3] = literature; cited from earlier work
[4] = Metabolism of 5-(m-methylphenoxy)-2-(1H)pyrimidinone / 5-m-tolyloxyuracil in rats (C2 radiolabel); assay type: in vivo
[5] = Metabolism of 5-(m-methylphenoxy)-2-(1H)pyrimidinone / 5-m-tolyloxyuracil in monkeys (C2 radiolabel); assay type: in vivo
[6] = Plasma pharmacokinetics in human subjects; assay type: in vivo
Method: (§1) In man, using single doses of 400 to 700 mg of 5-(m-methylphenoxy)-2-(1H)pyrimidinone, this drug had declined below the level of detectability by 2 hours post dose.
In our studies in animals and man we have never been able to isolate 5-m-tolyloxyuracil in substantially pure form. Rather we have obtained samples of urine and blood plasma from animals and man consisting of a multitude of natural components, one of which we have identified as 5-m-tolyloxyuracil by comparison of its physical properties with material prepared in substantially pure form by the synthesis described in the present application. Indeed, in samples of plasma from human subjects treated with 5-m-tolyloxy-2(1H)pyrimidinone we have only detected peak levels of 5-m-tolyloxyuracil at the very low concentration of 40 ug/ml. When we say "in substantially pure form", we mean a purity of 95% or greater.

[7] = Metabolic conversion in human subjects; assay type: in vivo
Method: as §1

[8] = Search for other metabolic modifications of 5-(m-methylphenoxy)-2-(1H)pyrimidinone; set-up: species or system rats, monkeys and human subjects; conditions: in vivo
Method: U.S. Pat. No. 3,922,345 discloses the method of treating peptic ulcers which comprises administering to a subject afflicted therewith a daily dose of about 0.60 to 21 mg per kg. of body weight of 5-(m-methylphenoxy)-2-(1H)-pyrimidinone. […] We have been unable to detect metabolic products resulting from (1) phenoxy ring hydroxylation, (2) oxidation of the m-methyl group or (3) ether cleavage.

[9] = rats, cold-restraint stress, doses of the table
[10] = endogenously generated 5-m-tolyloxyuracil

For `CC1(C(=O)O)CCC2(C)CCC3(C)C(=CC(=O)C4C5(C)CCC(OC(=O)CCC(=O)O)C(C)(C)C5CCC43C)C2C1` (stereo not shown) [Compound C, Carbenoxolone-Na], the “antiulcer activity (in words)” value ([1]; 32 mg/kg) was “less active at 32 mg/kg at which dose the activity is not significant at the P = 0.05 level”, the “% incidence of lesions” value ([1]; 32 mg/kg ip, control 50) was 40% and the Number of lesions ([1]; 32 mg/kg ip, control 15) was 9. For the same compound, the “antiulcer activity (in words)” value ([1]; 60 mg/kg) was “significantly active (P < 0.05)”, the “% incidence of lesions” value ([1]; 60 mg/kg ip, control 65) was 25% and the Number of lesions ([1]; 60 mg/kg ip, control 24) was 7. For the same compound, the “protection from experimentally-induced gastric ulceration” value [2] was “known to protect animals from experimentally-induced gastric ulceration” and the “gastric antiulcer efficacy in clinical trials” value (gastric ulcer) was “effective gastric antiulcer agent”.
In the case of `O=c1[nH]cc(Oc2ccccc2)c(=O)[nH]1` [5-Phenoxyuracil], the “inhibition of FUDR phosphorylase” value (FUDR phosphorylase) is given as “poor activity” and the “inhibition of thymidine phosphorylase” value (thymidine phosphorylase) is given as “poor activity”.
For `O=c1[nH]cc(F)c(=O)[nH]1` [5-fluorouracil], the “metabolic conversion / degradation” value [3] is given as “metabolically converted to 5,6-dihydrouracils which undergo ring opening with subsequent loss of the C2 pyrimidine carbon as carbon dioxide; also recorded: undergoes a reduction of the 5,6-double bond to give a 5,6-dihydrouracil which subsequently undergoes ring opening to an N-acetamido βalanine which then loses the C-2 pyrimidine carbon as carbon dioxide”.
With `Cc1cccc(Oc2c[nH]c(=S)[nH]c2=O)c1` [Compound B, 5-m-tolyloxy-2-thiouracil] the “% incidence of lesions” value ([1]; 10 mg/kg po, control 80) was 80%, the Number of lesions ([1]; 10 mg/kg po, control 31) was 50 and the “antiulcer activity (in words)” value [1, 9] was “inactive”.
For `Cc1cccc(Oc2c[nH]c(=O)[nH]c2=O)c1` [Compound A, 5-m-tolyloxyuracil], the “% incidence of lesions” value ([1]; 32 mg/kg ip, control 100) was 56%, the Number of lesions ([1]; 32 mg/kg ip, control 58) was 19 and the “% incidence of lesions” value ([1]; 50 mg/kg ip, control 100) was 70%. For the same compound, the Number of lesions ([1]; 50 mg/kg ip, control 58) was 34, the “antiulcer activity (in words)” value [1, 9] was “effective antiulcer agents at both doses tested since the number and incidence of lesions following drug treatment are significantly lower (P value < 0.05) than in controls” and the “antiulcer activity (in words)” value ([1]; rats, cold-restraint stress, doses of the table, listed as 5-m-tolyloxyuracil) was “protects rats against ulceration”. The “metabolic degradation (ring opening, loss of C2 as carbon dioxide)” value [4, 10] was “does not undergo this metabolic degradation; also recorded: no appriciable quantities of radioactive CO2 were observed”, the “metabolic degradation (ring opening, loss of C2 as carbon dioxide)” value [5, 10] was “does not undergo this metabolic degradation; also recorded: no appriciable quantities of radioactive CO2 were observed” and the “plasma half life compared with 5-(m-methylphenoxy)-2-(1H)pyrimidinone” value ([6]; human subjects) was “much longer plasma half life; also recorded: much longer plasma half-life”. For the same compound, the “peak plasma concentration compared with parent drug” value ([6]; human, endogenously generated after single 400 to 700 mg doses of 5-(m-methylphenoxy)-2-(1H)pyrimidinone) was “peak concentrations greater than that of parent drug”.
With `Cc1cccc(Oc2cnc(=O)[nH]c2)c1` [Compound D, 5-(m-methylphenoxy)-2(1H)-pyrimidinone] the “% incidence of lesions” value ([1]; 10 mg/kg ip, control 90) was 60%, the Number of lesions ([1]; 10 mg/kg ip, control 42) was 12 and the “% incidence of lesions” value ([1]; 32 mg/kg ip, control 90) was 40%. The Number of lesions ([1]; 32 mg/kg ip, control 34) was 13, the “antiulcer activity (in words)” value [1, 9] was “effective antiulcer agents at both doses tested since the number and incidence of lesions following drug treatment are significantly lower (P value < 0.05) than in controls” and the “metabolic conversion to 5-m-tolyloxyuracil” value [4] was “rapidly and efficiently metabolically converted to 5-m-tolyloxyuracil”. The “metabolic conversion to 5-m-tolyloxyuracil” value [5] was “rapidly and efficiently metabolically converted to 5-m-tolyloxyuracil”, the “metabolic conversion to 5-m-tolyloxyuracil” value [7] was “rapidly and efficiently metabolically converted to 5-m-tolyloxyuracil” and the “time post dose to decline below the level of detectability” value ([6]; human, single doses of 400 to 700 mg) was no more than 2 h. The “other metabolic modifications (phenoxy ring hydroxylation, m-methyl oxidation, ether cleavage)” value [8] was “do not occur to any detectable extent”.
